Data from publication PMC3156712 (2011).

Legend:
[1] = tested on: tRNA^phe (RNA, tRNA) GCGGAUUUAGCUCAGUUGGGAGAGCGCCAGACUGAAGAUCUGGAGGUCCUGUGUUCGAUCCACAGAAUUCGCACCA; assay: absorption titration, Scatchard, McGhee-von Hippel; conditions: 20 mM Na+, citrate-phosphate buffer pH 7.0, 20°C, per nucleotide phosphate, per base
[2] = tested on: tRNA^phe (RNA, tRNA) GCGGAUUUAGCUCAGUUGGGAGAGCGCCAGACUGAAGAUCUGGAGGUCCUGUGUUCGAUCCACAGAAUUCGCACCA; assay: DSC and optical melting; conditions: Na+, citrate-phosphate buffer pH 7.0, third transition (61°C), first unaffected, compound concentration not stated, per base
[3] = tested on: tRNA^phe (RNA, tRNA) GCGGAUUUAGCUCAGUUGGGAGAGCGCCAGACUGAAGAUCUGGAGGUCCUGUGUUCGAUCCACAGAAUUCGCACCA; assay: fluorescence titration, Scatchard, McGhee-von Hippel; conditions: 20 mM Na+, citrate-phosphate buffer pH 7.0, 20°C, per nucleotide phosphate, per base
[4] = tested on: tRNA^phe (RNA, tRNA) GCGGAUUUAGCUCAGUUGGGAGAGCGCCAGACUGAAGAUCUGGAGGUCCUGUGUUCGAUCCACAGAAUUCGCACCA; assay: ITC, single site model; conditions: 20 mM Na+, citrate-phosphate buffer pH 7.0, 20°C, per nucleotide phosphate, per base

COc1cccc2c1C(=O)c1c(O)c3c(c(O)c1C2=O)C[C@@](O)(C(C)=O)C[C@@H]3O[C@H]1C[C@H](N)[C@H](O)[C@H](C)O1
K′ [1]: 21.20 ± 0.30 × 10^4 M^-1
dTm ([2]; second transition about 4°C): 12.5 °C
K′ [3]: 18.58 ± 0.32 × 10^4 M^-1
K [4]: 22.2 ± 0.1 × 10^4 M^-1

COc1cccc2c1cc1c3c(cc4c(c32)OCO4)C(=O)N1[C@@H]1O[C@H](CO)[C@@H](O)[C@H](O)[C@H]1O
K′ ([1]; 240 mM DMSO): 4.33 ± 0.20 × 10^4 M^-1
dTm ([2]; second transition about 2°C): 7 °C
K′ ([3]; 240 mM DMSO): 6.38 ± 0.20 × 10^4 M^-1
K ([4]; 240 mM DMSO): 6.5 ± 0.3 × 10^4 M^-1
